Data: publication PMC6843445, “Pharmacokinetic Properties of Fluorescently Labelled Hydroxypropyl-Beta-Cyclodextrin” (Biomolecules, 2019)

Tested on: HUVECs
Assay: FITC-HPBCD uptake, flow cytometry
Assay type: cell-based, Human
Experimental: Human umbilical vein endothelial cells (HUVECs) were removed from umbilical veins by exposure to dispase (0.2% in Hank’s balanced salt solution) and cultured in gelatin-coated flasks in medium 199 containing 15% foetal bovine serum (FBS), antibiotics, L-glutamine, sodium pyruvate and endothelial cell growth supplement from bovine pituitary. For the fluorescent microscopic experiments, cells were seeded onto gelatin-coated round glass coverslips and maintained in medium until the treatments.
In the flow cytometry experiments, HUVECs were treated with 50 µM FITC-HPBCD for 30 min at 37 °C and washed five times with ice-cold HBSS. Half of the samples were incubated for a further 60 min in HBSS at 37 °C. After the above-mentioned incubations every sample was trypsinized, the cell suspensions were washed twice with ice-cold HBSS and analyzed with a FACScan flow cytometer (BD Biosciences, San Jose, CA, USA). Propidium-iodide (PI) (2 µg/mL) was added to the samples to recognize dead cells and exclude them from the evaluation. FITC-HPBCD was excited by an argon laser at 488 nm and the emission was detected via 530/30 nm band pass filter. Data were analyzed by BDIS Cellquest software (Becton-Dickinson). The cellular fluorescence intensities of the FITC-HPBCD treated cells were compared to the fluorescence of the untreated control cells and expressed as relative cellular fluorescence intensities.

6-deoxy-6-[(5/6)-fluoresceinylthioureido]-(2-hydroxypropyl)-β-cyclodextrin [FITC-HPBCD]
cellular fluorescence after further incubation in HBSS (50 µM 30 min, then 60 min in HBSS): significantly decreased | cellular fluorescence vs untreated control (50 µM, 30 min incubation): significantly increased
